Laboratory results published in publication PMC4176091, “Novel expression of Haemonchus contortus vaccine candidate aminopeptidase H11 using the free-living nematode Caenorhabditis elegans” (Veterinary Research, 2013).

Tests used:
Assay in all cases: aminopeptidase assay, absorbance at […] nm
Assay type in all cases: biochemical
Conditions in all cases: 0.5 mM substrate; 50 mM NaPO4, pH 5.5 and 7; 2 h at 37 °C then overnight at room temperature
[1] = target: T1, H11 (rH11, isoform H11) (Haemonchus contortus, UniProt Q10737)
T1 construct: soluble, expressed in C. elegans; N-terminal transmembrane domain (35 aa) replaced by Hmcp-6 signal peptide; C-terminal 10 aa His tag; cobalt resin
T1 sequence (Q10737 36-972): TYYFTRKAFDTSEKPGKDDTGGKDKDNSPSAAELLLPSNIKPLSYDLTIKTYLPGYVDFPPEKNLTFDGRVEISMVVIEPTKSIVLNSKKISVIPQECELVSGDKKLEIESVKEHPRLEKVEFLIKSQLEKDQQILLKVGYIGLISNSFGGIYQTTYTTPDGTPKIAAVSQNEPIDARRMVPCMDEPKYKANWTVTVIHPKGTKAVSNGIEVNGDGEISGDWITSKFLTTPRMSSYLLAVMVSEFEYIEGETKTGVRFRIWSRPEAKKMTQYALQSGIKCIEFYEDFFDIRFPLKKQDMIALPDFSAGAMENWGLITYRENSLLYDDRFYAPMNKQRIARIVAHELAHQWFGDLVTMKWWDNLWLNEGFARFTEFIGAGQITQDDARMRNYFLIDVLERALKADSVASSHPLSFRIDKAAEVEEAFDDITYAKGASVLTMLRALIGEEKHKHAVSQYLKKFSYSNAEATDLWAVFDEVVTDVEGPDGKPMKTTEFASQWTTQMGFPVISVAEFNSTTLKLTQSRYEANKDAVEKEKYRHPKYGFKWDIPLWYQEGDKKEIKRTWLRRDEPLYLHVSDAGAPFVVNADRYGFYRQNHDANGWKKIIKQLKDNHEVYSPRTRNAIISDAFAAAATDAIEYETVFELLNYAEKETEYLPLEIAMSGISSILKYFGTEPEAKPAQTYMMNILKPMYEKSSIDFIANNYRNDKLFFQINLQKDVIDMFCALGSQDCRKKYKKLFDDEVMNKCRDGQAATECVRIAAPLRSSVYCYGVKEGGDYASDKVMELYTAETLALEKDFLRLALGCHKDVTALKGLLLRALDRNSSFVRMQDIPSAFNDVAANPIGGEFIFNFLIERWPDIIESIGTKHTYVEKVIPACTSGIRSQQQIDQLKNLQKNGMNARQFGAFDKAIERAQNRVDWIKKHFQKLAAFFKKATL

[2] = target: T2, rH11-1 (Haemonchus contortus, UniProt Q9U5P6)
T2 construct: gene h11-1; soluble, expressed in C. elegans; N-terminal transmembrane domain (35 aa) replaced by Hmcp-6 signal peptide; C-terminal 10 aa His tag; cobalt resin
T2 sequence (Q9U5P6 entry or part of it): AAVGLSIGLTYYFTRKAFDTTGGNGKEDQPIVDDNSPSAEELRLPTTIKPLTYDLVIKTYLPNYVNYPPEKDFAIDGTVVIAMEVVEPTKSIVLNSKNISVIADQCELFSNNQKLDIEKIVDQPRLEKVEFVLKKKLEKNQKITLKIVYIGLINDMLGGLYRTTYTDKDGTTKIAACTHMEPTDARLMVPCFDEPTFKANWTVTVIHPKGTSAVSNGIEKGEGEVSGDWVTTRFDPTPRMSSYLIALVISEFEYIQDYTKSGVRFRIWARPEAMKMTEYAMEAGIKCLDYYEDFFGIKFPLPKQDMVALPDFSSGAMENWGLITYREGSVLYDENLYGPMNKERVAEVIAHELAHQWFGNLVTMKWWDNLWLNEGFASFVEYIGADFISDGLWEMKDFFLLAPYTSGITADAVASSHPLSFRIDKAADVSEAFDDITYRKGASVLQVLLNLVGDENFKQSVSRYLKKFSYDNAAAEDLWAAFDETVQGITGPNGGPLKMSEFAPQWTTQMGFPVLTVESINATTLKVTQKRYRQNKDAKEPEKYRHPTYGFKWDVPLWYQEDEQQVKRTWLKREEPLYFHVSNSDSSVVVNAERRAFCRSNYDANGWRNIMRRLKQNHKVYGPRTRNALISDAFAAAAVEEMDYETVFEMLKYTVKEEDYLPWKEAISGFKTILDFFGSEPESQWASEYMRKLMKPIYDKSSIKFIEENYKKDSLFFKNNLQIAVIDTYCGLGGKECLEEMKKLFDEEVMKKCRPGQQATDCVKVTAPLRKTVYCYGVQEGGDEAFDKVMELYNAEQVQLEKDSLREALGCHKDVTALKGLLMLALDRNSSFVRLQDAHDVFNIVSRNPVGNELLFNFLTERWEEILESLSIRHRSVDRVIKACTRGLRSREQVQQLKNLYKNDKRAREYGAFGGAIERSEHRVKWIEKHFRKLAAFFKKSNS

[3] = target: T3, rH11-5 (Haemonchus contortus, UniProt V5K5H8)
T3 construct: soluble, expressed in C. elegans; N-terminal transmembrane domain (35 aa) replaced by Hmcp-6 signal peptide; C-terminal 10 aa His tag; cobalt resin
T3 sequence (V5K5H8 entry or part of it): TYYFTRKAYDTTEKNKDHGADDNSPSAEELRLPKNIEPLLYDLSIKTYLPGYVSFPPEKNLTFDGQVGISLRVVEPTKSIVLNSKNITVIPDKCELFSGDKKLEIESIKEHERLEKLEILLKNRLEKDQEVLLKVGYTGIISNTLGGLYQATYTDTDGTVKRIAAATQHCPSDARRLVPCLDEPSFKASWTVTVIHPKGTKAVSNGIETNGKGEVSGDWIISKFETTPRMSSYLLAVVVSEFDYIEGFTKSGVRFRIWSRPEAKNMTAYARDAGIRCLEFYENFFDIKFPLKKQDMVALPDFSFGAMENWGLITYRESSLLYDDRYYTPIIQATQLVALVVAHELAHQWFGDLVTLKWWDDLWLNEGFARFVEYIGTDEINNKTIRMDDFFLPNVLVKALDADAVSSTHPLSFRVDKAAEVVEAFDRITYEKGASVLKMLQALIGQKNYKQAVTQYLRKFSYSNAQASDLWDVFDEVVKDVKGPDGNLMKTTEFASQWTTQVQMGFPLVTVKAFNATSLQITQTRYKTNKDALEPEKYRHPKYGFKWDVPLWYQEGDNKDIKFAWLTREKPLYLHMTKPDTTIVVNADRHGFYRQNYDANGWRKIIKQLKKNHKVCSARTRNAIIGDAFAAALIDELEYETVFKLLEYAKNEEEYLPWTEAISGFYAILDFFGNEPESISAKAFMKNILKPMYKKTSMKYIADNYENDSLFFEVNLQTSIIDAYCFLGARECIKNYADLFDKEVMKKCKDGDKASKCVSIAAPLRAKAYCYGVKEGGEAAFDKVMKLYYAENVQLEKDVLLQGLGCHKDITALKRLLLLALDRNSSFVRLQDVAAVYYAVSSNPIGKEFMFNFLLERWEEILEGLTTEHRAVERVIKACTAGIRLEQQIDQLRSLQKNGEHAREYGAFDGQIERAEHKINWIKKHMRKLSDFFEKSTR

[4] = target: T4, rH11-4 (Haemonchus contortus, UniProt Q967C6)
T4 construct: gene h11-4; soluble, expressed in C. elegans; N-terminal transmembrane domain (35 aa) replaced by Hmcp-6 signal peptide; C-terminal 10 aa His tag; N-glycosylated; cobalt resin
T4 sequence (Q967C6 entry or part of it): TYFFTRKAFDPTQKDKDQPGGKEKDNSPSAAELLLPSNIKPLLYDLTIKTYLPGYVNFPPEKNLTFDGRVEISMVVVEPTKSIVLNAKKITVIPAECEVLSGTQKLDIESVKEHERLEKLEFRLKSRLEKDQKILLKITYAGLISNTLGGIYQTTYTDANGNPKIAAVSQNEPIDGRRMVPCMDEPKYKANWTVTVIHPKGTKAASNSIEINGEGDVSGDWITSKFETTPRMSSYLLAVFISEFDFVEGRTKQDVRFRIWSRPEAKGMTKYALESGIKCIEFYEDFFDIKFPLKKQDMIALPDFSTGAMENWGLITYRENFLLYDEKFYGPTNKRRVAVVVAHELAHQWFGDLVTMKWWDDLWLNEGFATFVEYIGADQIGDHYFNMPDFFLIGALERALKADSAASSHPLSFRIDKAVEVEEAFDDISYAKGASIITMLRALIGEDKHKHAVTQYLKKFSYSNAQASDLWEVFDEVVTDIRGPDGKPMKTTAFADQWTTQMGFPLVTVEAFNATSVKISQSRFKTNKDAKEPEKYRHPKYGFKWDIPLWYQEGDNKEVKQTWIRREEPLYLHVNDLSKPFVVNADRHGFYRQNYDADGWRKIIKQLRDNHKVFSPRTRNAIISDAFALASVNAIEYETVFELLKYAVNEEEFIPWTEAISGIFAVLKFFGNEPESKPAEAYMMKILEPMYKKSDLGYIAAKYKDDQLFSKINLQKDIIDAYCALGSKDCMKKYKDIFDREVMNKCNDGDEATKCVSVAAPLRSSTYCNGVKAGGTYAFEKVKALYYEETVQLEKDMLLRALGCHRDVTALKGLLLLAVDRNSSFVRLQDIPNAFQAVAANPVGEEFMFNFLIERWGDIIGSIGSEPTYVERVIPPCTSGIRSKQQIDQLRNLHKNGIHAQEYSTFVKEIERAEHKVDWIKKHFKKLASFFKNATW

CC(C)C[C@H](N)C(=O)Nc1ccc([N+](=O)[O-])cc1 [L-leucine p-nitroanilide]
aminopeptidase assay, absorbance at 405 nm [1]: rH11-4 and rH11-5 showing greater activity than H11 and H11-1 isoforms
aminopeptidase assay, absorbance at 405 nm [2]: rH11-4 and rH11-5 showing greater activity than H11 and H11-1 isoforms
aminopeptidase assay, absorbance at 405 nm [3]: rH11-4 and rH11-5 showing greater activity than H11 and H11-1 isoforms
aminopeptidase assay, absorbance at 405 nm [4]: rH11-4 and rH11-5 showing greater activity than H11 and H11-1 isoforms
